According to patent publication US12084473B2, “β-D-2′-deoxy-2′-α-fluoro-2′-β-C-substituted-2-modified-N6-substituted purine nucleotides for HCV treatment” (Atea Pharmaceuticals, Inc., priority 2015, dated 2024):
Like-named read-outs stand apart in the source and are kept apart here.

Tests used:
human DNA polymerase β = molecular target: T1, human DNA polymerase β (Homo sapiens, UniProt P06746); assay: Human DNA Polymerase Assays; format: biochemical; conditions: at concentrations up to 100 μM
T1 construct: purchased CHIMERx
Method: (§1) Inhibition of human DNA polymerases α, β and γ (CHIMERx) was determined in triplicate in reaction mixtures of serially diluted TA, 0.05 mM dCTP, dTTP, and dATP, 10 μCi [^32P]-α-dGTP (800 Ci/mmol), 20 μg activated calf thymus DNA and additional reagents specific for each polymerase.

human DNA polymerase γ = molecular target: T2, human DNA polymerase γ (Homo sapiens, UniProt P54098); assay: Human DNA Polymerase Assays; format: biochemical; conditions: at concentrations up to 100 μM
T2 construct: purchased CHIMERx
T2 sequence (P54098 1-1239): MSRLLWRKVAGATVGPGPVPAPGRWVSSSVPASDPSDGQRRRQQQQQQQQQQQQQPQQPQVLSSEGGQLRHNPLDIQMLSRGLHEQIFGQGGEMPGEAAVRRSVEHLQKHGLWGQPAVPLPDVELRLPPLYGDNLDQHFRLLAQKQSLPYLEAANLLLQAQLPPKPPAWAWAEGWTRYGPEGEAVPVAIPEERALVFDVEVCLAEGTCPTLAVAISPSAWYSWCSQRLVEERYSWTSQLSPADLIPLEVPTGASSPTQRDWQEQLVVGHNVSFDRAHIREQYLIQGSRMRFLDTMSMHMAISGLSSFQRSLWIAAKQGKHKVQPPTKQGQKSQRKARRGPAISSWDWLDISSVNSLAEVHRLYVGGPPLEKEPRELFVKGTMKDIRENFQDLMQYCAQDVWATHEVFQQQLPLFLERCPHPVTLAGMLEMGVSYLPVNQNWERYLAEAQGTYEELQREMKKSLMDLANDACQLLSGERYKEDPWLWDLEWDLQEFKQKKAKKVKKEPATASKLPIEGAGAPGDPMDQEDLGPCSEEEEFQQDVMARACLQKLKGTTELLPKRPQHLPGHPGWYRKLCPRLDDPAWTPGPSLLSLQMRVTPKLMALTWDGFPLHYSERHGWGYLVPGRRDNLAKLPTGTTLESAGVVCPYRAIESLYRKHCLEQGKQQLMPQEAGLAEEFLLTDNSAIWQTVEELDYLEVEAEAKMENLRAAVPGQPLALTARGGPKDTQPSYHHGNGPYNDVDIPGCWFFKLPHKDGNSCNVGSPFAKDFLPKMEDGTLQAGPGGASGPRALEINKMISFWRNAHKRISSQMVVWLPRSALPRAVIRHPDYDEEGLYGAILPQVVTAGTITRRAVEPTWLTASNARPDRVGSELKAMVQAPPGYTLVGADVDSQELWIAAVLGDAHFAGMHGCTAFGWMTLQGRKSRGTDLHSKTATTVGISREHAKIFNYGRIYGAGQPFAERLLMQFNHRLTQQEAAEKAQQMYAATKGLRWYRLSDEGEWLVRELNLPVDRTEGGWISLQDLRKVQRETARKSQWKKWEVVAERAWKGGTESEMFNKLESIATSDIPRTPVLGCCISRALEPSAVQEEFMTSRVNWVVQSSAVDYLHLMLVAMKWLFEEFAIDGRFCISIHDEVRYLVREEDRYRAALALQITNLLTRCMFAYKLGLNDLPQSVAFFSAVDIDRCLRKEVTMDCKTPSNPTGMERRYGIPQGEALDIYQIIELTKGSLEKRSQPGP
Method: as §1

iPS Cardiomyocyte Assay = format: cell-based, human; conditions: human, iPS cardiomyocytes
Method: iPS Cardiomyocytes (Cellular Dynamics) were seeded in microliter plates at 1.5×10^4 cells per well. After 48-hr incubation, cells were washed and maintenance medium containing serially diluted TA was added in triplicate. After incubating for an additional 3 days, cell viability was measured by staining with XTT and CC50 values were calculated.

[1] = Human Bone Marrow Progenitor Cell Assay; format: cell-based; conditions: human, fresh human bone marrow progenitor cells; read-out: CC50 in human bone marrow stem cells
Method: Fresh human bone marrow progenitor cells (Invitrogen) suspended in either BFU-E or GM-CSF-specific culture medium were added, at 10^5 cells/well, to triplicate serial dilutions of TA in 6-well plates. After 14-day incubations, colony counts were used to determine CC50 values. BFU-E colonies were confirmed using the benzidene technique.

other RNA or DNA viruses = assay: Activity against other RNA or DNA viruses; format: cell-based; conditions: at concentrations up to 100 μM
[2] = Stability in fresh human whole blood; format: in vitro ADME; conditions: 10 μM, up to 120 min, FIG. 5
Method: The stability of selected compounds in fresh human whole blood and in human liver S9 fraction was determined in incubations containing 10 μM test compound. After incubations of 0, 30, 60 min, and up to 120 min, aliquots were removed and immediately extracted with 3 volumes of ice-cold methanol/acetonitrile (1:1, v/v). Extracts were centrifuged and supernatants were analyzed by LC-MS/MS for concentrations of unchanged test compound and potential metabolites.

[3] = tested on: micro-patterned human hepatocyte co-cultures; assay: Human Hepatocyte Co-Cultures (HepatoPac): cytotoxicity and hepatocyte health; format: cell-based; conditions: for IC50: Homo sapiens, Hepatocyte
Method: Cytotoxicity and hepatocyte health were assessed in triplicate by measuring ALT leakage, urea production, albumin secretion and cellular ATP contents in micro-patterned human hepatocyte co-cultures (HepatoPac®, Hepregen Corporation) prepared by seeding cryopreserved human hepatocytes (single donor) and 3T3 J2 mouse fibroblasts in microtiter plates according to procedures established by Hepregen. Culture media was replaced with fresh media containing TA, test article, (0, 1, 10 or 30 μM) every 2 or 3 days through day 16. […] Cellular ATP levels were measured on days 9 and 21. ATP signals in stromal-only control cultures (murine 3T3 fibroblasts) were subtracted from those of human HepatoPac co-cultures to obtain hepatocyte-specific effects. See, Table 4, 5 and 6 below.

## CC(C)OC(=O)[C@H](C)N[P@](=O)(OCC1O[C@@H](n2cnc3c(N(C)C4CC4)nc(N)nc32)[C@](C)(F)[C@@H]1O)Oc1ccccc1 (stereo partly drawn) [Compound 27, isopropyl ((((S)-(2R,3R,4R,5R)-5-(2-amino-6-(methylcyclopropanamino)-9H-purin-9-yl)-4-fluoro-3-hydroxy-4-methyltetrahydrofuran-2-yl)methoxy)-phenoxy-phosphoryl)-L-alaninate]
Human DNA polymerase β
  inhibition of human DNA polymerase β: No inhibition
Human DNA polymerase γ
  inhibition of human DNA polymerase γ: No inhibition
iPS Cardiomyocyte Assay
  CC50 at 3 day: > 100 µM
[1]
  CC50 at 14 day: > 100 µM
Other RNA or DNA viruses
  activity against other RNA or DNA viruses: no activity

## CC(C)OC(=O)[C@H](C)N[P@](=O)(OCC1O[C@@H](n2cnc3c(N(C)C)nc(N)nc32)[C@](C)(F)[C@@H]1O)Oc1ccccc1 (stereo partly drawn) [Compound 25, isopropyl ((((S)-(2R,3R,4R,5R)-5-(2-amino-6-(dimethylamino)-9H-purin-9-yl)-4-fluoro-3-hydroxy-4-methyltetrahydrofuran-2-yl)methoxy)-phenoxy-phosphoryl)-L-alaninate]
Human DNA polymerase β
  inhibition of human DNA polymerase β: No inhibition
Human DNA polymerase γ
  inhibition of human DNA polymerase γ: No inhibition
iPS Cardiomyocyte Assay
  CC50 at 3 day: > 100 µM
[1]
  CC50 at 14 day: > 100 µM
Other RNA or DNA viruses
  activity against other RNA or DNA viruses: no activity

## CNc1nc(N)nc2c1ncn2[C@@H]1OC(CO[P@@](=O)(N[C@@H](C)C(=O)OC(C)C)Oc2ccccc2)[C@@H](O)[C@@]1(C)F (some centres unmarked) [Compound 5-2]
[2]
  stability in human blood: excellent stability
[3]; 48 h, Table 5, Day 2, read-out: Effect on Albumin Secretion, 50% Inhibitory Concentration (IC50)
  IC50: > 30 µM
[3]; 48 h, Table 6, Day 2, read-out: Effect on Albumin Secretion, 50% Inhibitory Concentration (IC50)
  IC50: > 30 µM
[3]; 120 h, Table 5, Day 5, read-out: Effect on Albumin Secretion, 50% Inhibitory Concentration (IC50)
  IC50: > 30 µM
[3]; 120 h, Table 6, Day 5, read-out: Effect on Albumin Secretion, 50% Inhibitory Concentration (IC50)
  IC50: > 30 µM
[3]; 168 h, Table 5, Day 7, read-out: Effect on Albumin Secretion, 50% Inhibitory Concentration (IC50)
  IC50: > 30 µM
[3]; 168 h, Table 6, Day 7, read-out: Effect on Albumin Secretion, 50% Inhibitory Concentration (IC50)
  IC50: > 30 µM
[3]; 216 h, Day 9, read-out: Effect on Cellular ATP Concentrations, 50% Inhibitory Concentration (IC50)
  IC50: > 30 µM
[3]; 216 h, Table 5, Day 9, read-out: Effect on Albumin Secretion, 50% Inhibitory Concentration (IC50)
  IC50: > 30 µM
[3]; 216 h, Table 6, Day 9, read-out: Effect on Albumin Secretion, 50% Inhibitory Concentration (IC50)
  IC50: > 30 µM
[3]; 288 h, Table 6, Day 12, read-out: Effect on Albumin Secretion, 50% Inhibitory Concentration (IC50)
  IC50: > 30 µM
[3]; 384 h, Table 6, Day 16, read-out: Effect on Albumin Secretion, 50% Inhibitory Concentration (IC50)
  IC50: 24.2 µM
[3]; 504 h, Day 21, read-out: Effect on Cellular ATP Concentrations, 50% Inhibitory Concentration (IC50)
  IC50: 12.8 µM
[3]; 504 h, Table 6, Day 21, read-out: Effect on Albumin Secretion, 50% Inhibitory Concentration (IC50)
  IC50: 14.5 µM
[3]; concentrations up to 30 μM, up to 12 days
  signs of cytotoxicity by ALT leakage, albumin secretion, urea production and cellular ATP content: no signs of cytotoxicity
[3]; up to 21 days of culture
  cytotoxicity with extended exposure: minor indications of cytotoxicity
